Publication PMC6934184, “Selective DNA-PKcs inhibition extends the therapeutic index of localized radiotherapy and chemotherapy” (The Journal of Clinical Investigation, 2019)

Target: T1, MAPK8 (JNK1) (Homo sapiens, UniProt P45983)
T1 construct: purchased Thermo Fisher Scientific (Life Technologies) SelectScreen
Test: SelectScreen Z'LYTE
Type: biochemical
Conditions: ATP 100 µM
Outline: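 NU5455 was profiled across the SelectScreen Broad panel of kinase activity and binding assays. Z'LYTE reactions such as CSF1R ran at apparent Km ATP, while the Adapta CAMK1 assay used ATP listed as 10. Values are given as percent.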

T1 sequence (P45983 whole entry): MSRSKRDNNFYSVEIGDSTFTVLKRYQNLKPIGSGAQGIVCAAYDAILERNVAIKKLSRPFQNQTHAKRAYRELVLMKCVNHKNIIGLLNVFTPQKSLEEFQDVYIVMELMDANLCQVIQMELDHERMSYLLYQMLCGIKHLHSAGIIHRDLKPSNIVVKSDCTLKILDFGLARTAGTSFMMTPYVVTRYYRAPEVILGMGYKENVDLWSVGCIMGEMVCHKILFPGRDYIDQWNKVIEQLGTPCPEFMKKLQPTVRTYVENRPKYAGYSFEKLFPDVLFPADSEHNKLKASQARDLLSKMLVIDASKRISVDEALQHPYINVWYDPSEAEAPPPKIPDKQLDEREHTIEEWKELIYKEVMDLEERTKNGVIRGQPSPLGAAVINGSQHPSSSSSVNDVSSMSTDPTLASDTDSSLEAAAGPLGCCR

## CN(C(=O)CN1CCOCC1)c1ccc2sc3c(-c4cccc5c(=O)cc(N6CC7CCC(C6)O7)oc45)cccc3c2c1 [NU5455]
  inhibition at 1 µM: 12%
